Data from patent publication US11021472B2, “Use of compounds comprising two or more hydrophobic domains and a hydrophilic domain comprising PEG moieties for stabilization of a cell” (Roche Diagnostics Operations, Inc., priority 2013, dated 2021).
“And” between values parts separate entries of the source, which are not always exact repeats. Equal entries are not always repeated. Where two headings read alike, the source gives them in different places.

Experiments:
white blood cells (WBCs) = conditions: 300,000 WBCs/well
Method: In particular, the performance of a single cholesterol-molecule and different dual-linker molecules (i.e. containing two hydrophobic moieties) was tested. In detail, immobilization of white blood cells (WBCs) on a Streptavidin-coated surface using different linker molecules was tested on a 12-well plate: 300,000 WBCs/well. This was followed by the measurement of the cell recovery rate after immobilization and washing of the cells using the Cellavista instrument (10×Nuclei Operator s9s5).

Epithelial cells = assay: Labelling (staining) of cells with labelled molecules; type: cell-based
Description: (§1) As shown in the examples, a compound for use according to the invention, wherein the compound comprises a label moiety, is contacted with a cell. As labelling is preferably done with viable or potentially viable cells, the cells are typically present in an aqueous solution, which is preferably buffered and/or contains nutrients, e.g. the cells are suspended in PBS. The labeled compound for use according to the invention may be added to the cells, e.g. in form of a solution, e.g. as aqueous solution by methods known in the art, as pipetting.

WBCs [1] = assay: as above; type: cell-based
Description: as §1

WBCs [2] = assay: Recovery rate of cells after immobilization on streptavidin (SA) plate; type: cell-based; conditions: for Remarks (staining): staining of the cells by the molecule
Method: X=hydrophobic moiety, […]=fluorescein In the following experiment, the recovery rate of cells was determined.

WBC [3] = assay: WBC recovery rate after centrifugation (stabilization of cells); type: cell-based, human; conditions: for WBC recovery rate after centrifugation: dependence on molecule concentration: Centrifugation 10 min; for performance in WBC recovery rate after centrifugation (ranking): Centrifugation 20 min, 10 min, 1 h
Method: (§2) Centrifugation characteristics: 10 min, 300×g.
as §2
The respective left, middle and right columns per assay represent different Experimenters 1, 2 and 3. […] Centrifugation characteristics: 10 min, 300×g. Molecule: Cholesteryl-TEG-Cholesteryl-TEG-(SpacerC18)7-Fluos-Biotin-TEG.
Following molecules were tested: 1234: 5′-(Cholesteryl-TEG)2-Spacer C18-dT-Biotin-TEG-3′; 1248: 3′-(Cholesteryl-TEG)2-PEG2000-Fluos-Biotin-TEG-5′ INVERS; 1254: 3′-(Cholesteryl-TEG)2-SpacerC18-Fluos-Biotin-TEG-5′ INVERS; 1255: 3′-(Myristic acid)2-PEG2000-dT-Biotin-TEG-5′ INVERS. […] Centrifugation characteristics: 20 min, 300×g. Respective left column: 10 min incubation with molecule. Respective middle column: 1 h min incubation with molecule. Respective right column: 2 h incubation with molecule.
Following molecules were tested: 1255: 3′-(Myristic acid)2-PEG2000-dT-Biotin-TEG-5′ INVERS; 1234: 5′-(Cholesteryl-TEG)2-Spacer C18-dT-Biotin-TEG-3′; 1248: 3′-(Cholesteryl-TEG)2-PEG2000-Fluos-Biotin-TEG-5′ INVERS; 1254: 3′-(Cholesteryl-TEG)2-SpacerC18-Fluos-Biotin-TEG-5′ INVERS. […] Centrifugation characteristics: 20 min, 500×g. Respective left column: 10 min incubation with molecule. Respective middle column: 1 h min incubation with molecule. Respective right column: 3 h incubation with molecule.
Following molecules were tested: 1255: 3′-(Myristic acid)2-PEG2000-dT-Biotin-TEG-5′ INVERS; 1234: 5′-(Cholesteryl-TEG)2-Spacer C18-dT-Biotin-TEG-3′; 1248: 3′-(Cholesteryl-TEG)2-PEG2000-Fluos-Biotin-TEG-5′ INVERS; 1254: 3′-(Cholesteryl-TEG)2-SpacerC18-Fluos-Biotin-TEG-5′ INVERS. […] Centrifugation characteristics: 20 min, 1000×g. Respective left column: 10 min incubation with molecule. Respective middle column: 1 h min incubation with molecule. Respective right column: 2 h incubation with molecule.
Stabilization is typically determined on a population of cells, e.g. 2, 10, 100 or more cells, and the respective mean viability of the cell populations are compared. […] Viability may be determined by determining cell morphology, cell viability and/or cell recovery. Methods for determining cell morphology, cell viability and cell recovery are known in the art. […] For determining cell morphology, visual inspection by microscopy may be performed. For determining cell viability, a cell viability test using WST-1 proliferation kit (RAS) may be performed.

WBC [4] = system: WBC
Method: 4× determination. Row A: 200 μl PBS introduced, 1 nmol of compound added thereto respectively, mixed, incubated about 30 min, washed 2×PBS, 800 μl PBS introduced, 300.000 WBC (untreated) added. Row B: 800 μl PBS introduced, 300.000 WBC (untreated) added. Row C: 10×10^6 WBC in 1 ml with 10 nmol compound of invention 10 min incubated, 800 μl PBS/Well introduced, 300.000 treated WBC respectively. The first MTP plate washed after 30 min 2× with PBS, overlayed with Höchst and incubated for 15 min.>Cellavista (Operator s9s5) measured. The second plate was measured after 90 min. The third plate was measured after 150 min.
The experiments were performed for different incubation times, as shown below:
As starting material 5′-(Cholesteryl-TEG)2-PEG2000-Fluos-Biotin_TEG-3′ INVERS (14530 pmol/μl) (Internal Reference No.: 29.891250), and a streptavidin treated MTP (Microcoat), 12 Well plate were used.
Erythrocyte lysis was performed as follows:
EDTA-whole blood 59.423 6.400 WBC/μl (Ambulanz Roche)
lysis buffer: 100 mM NH4Cl+5 mM Hepes+0.5 mM KHCO3+0.1 mM EDTA-K
Ca 1×8 ml whole blood filled in 50 ml Falcon tube with lysis buffer, incubate at room temperature for 10 min
15 min at 250 g centrifugated, pellet resuspended by pipetting in and out in lysis buffer; filled to 50 ml with lysis buffer
15 min 250 g centrifugated, pellet resuspended with PBS, filled to 50 ml with PBS, 15 min 250 g centrifugated, filled to 50 ml with PBS
The design of the experiment on the plate is explained below (see FIG. 2):
Row A: 200 μl PBS introduced, 1 nmol of compound added thereto respectively, mixed, incubated about 30 min, washed 2× PBS, • 800 μl PBS introduced, 300.000 WBC (untreated) added.
Row B: 800 μl PBS introduced, 300.000 WBC (untreated) added.

[5] = Sample 1, compound concentration: 1 nmol/10e6 WBCs
[6] = Sample 1, first table, concentration not given
[7] = Sample 2, Compound Concentration: 100 pmol/10e6 WBCs
[8] = Sample 2, Compound Concentration: 1 nmol/10e6 WBCs
[9] = 300×g, 2 h incubation with molecule
[10] = 500×g, 3 h incubation with molecule

5′-(Cholesterol-TEG)1-Doubler-dT-Biotin-3′ [29.891272]
cell count per well (white blood cells (WBCs); [5]): 199973 and 220701 and 228481
cell count per well (white blood cells (WBCs); [6]): 147132 and 179643 and 181620
Mean (cell count) (white blood cells (WBCs); [7]): 186316.33
cell count per well (white blood cells (WBCs); [7]): 161504 and 201424 and 196021
Mean (cell count) (white blood cells (WBCs); [8]): 247418.33
cell count per well (white blood cells (WBCs); [8]): 241232 and 254894 and 246129

Sulfo-JA133-phenylboronic acid [BMO: 15.000078]
staining of cells by labelled molecule (Epithelial cells): ✓
staining of cells by labelled molecule (WBCs [1]): ✓ not all

Biotin-PEG-Lys-(C14)2 [15.260268]
Recovery Rate (WBCs [2]; 1.77 nmol/10e6 Cells): 85.72%

5′-(Cholesteryl-TEG)2-Spacer C12-dT-Biotin_TEG-3′ INVERS [29.891253]
cell count per well (white blood cells (WBCs); [5]): 218861 and 221471 and 208802
cell count per well (white blood cells (WBCs); [6]): 105061 and 128195 and 139678
Mean (cell count) (white blood cells (WBCs); [7]): 187757.67
cell count per well (white blood cells (WBCs); [7]): 178919 and 197130 and 187224
Mean (cell count) (white blood cells (WBCs); [8]): 237052.33
cell count per well (white blood cells (WBCs); [8]): 239105 and 240632 and 231420

5′-CholesterylTEG-CholesterylTEG-(SpacerC18)7-Fluos-BiotinTEG-3′ [BMO 29.891222]
WBC recovery rate after centrifugation: dependence on molecule concentration (WBC [3]; 300×g): the higher the molecule concentration, the higher the cell recovery rate after centrifugation
WBC recovery rate after centrifugation: dependence on molecule concentration (WBC [3]; 300×g, listed as A): The higher the molecule concentration, the higher the cell recovery rate after centrifugation
cell stabilization: dependence on the experimenter (WBC [3]; Experimenters 1, 2 and 3, centrifugation 10 min, 300×g): independent on the experimenter

5′-Myristic acid-Myristic acid-PEG2000-Fluos-BiotinTEG-3′ [BMO 29.891194]
Remarks (staining) (WBCs [2]): weak and stronger

5′-Myristic acid-Myristic acid-SpacerC18-Fluos-BiotinTEG-3′ [BMO 29.891213]
Remarks (staining) (WBCs [2]): strong

5′-Myristic acid-SpacerC9-Myristic acid-PEG2000-Fluos-BiotinTEG-3′ [BMO 29.891197]
Remarks (staining) (WBCs [2]): weak

5′-(Cholesteryl-TEG)2-Spacer C18-dT-Biotin-TEG-3′ [compound 1234]
performance in WBC recovery rate after centrifugation (ranking) (WBC [3]; [9]): best performance
performance in WBC recovery rate after centrifugation (ranking) (WBC [3]; [10]): best performance

Biotin-PEG-Lysin-(C18)2 [HH1749]
WBC recovery rate after centrifugation: dependence on molecule concentration (WBC [3]; 300×g): The higher the concentration of the molecule, the higher the cell recovery rate after centrifugation

Biotin-PEG-Lysin-(C18)2 [HH1755]
WBC recovery rate after centrifugation: dependence on molecule concentration (WBC [3]; 300×g): The higher the concentration of the molecule, the higher the cell recovery rate after centrifugation

CCCCCCCCCCCCCCCCCCCCCCN1/C(=C/C=C/c2oc3ccccc3[n+]2CCC)Oc2ccccc21.[I-] [PKH2]
staining of cells by labelled molecule (Epithelial cells): ✓ not all
staining of cells by labelled molecule (WBCs [1]): ✓

5′-Myristic acid-Myristic acid-(SpacerC18)7-Fluos-BiotinTEG-3′ [BMO 29.891214]
Remarks (staining) (WBCs [2]): strong

5′-(Cholesteryl-TEG)2-Spacer C18-Fluos-Biotin_TEG-3′ INVERS [29.891254]
performance in WBC recovery rate after centrifugation (ranking) (WBC [3]; [9]): followed by compound 1255 and 1254
performance in WBC recovery rate after centrifugation (ranking) (WBC [3]; [10]): followed by molecule 1255 and 1254
cell count per well (white blood cells (WBCs); [5]): 244649 and 234262 and 260760
cell count per well (white blood cells (WBCs); [6]): 157660 and 190148 and 170850
Mean (cell count) (white blood cells (WBCs); [7]): 197067.00
cell count per well (white blood cells (WBCs); [7]): 205917 and 185100 and 200184
Mean (cell count) (white blood cells (WBCs); [8]): 245376.00
cell count per well (white blood cells (WBCs); [8]): 247428 and 244396 and 244304

5′-(Cholesteryl-TEG)2-PEG2000-Fluos-Biotin_TEG-3′ INVERS [29.891250]
MW (mean WBC count; target: 300.000 WBC) (WBC [4]; 30 min, WBC treated): 231829.75
WBC recovery rate [%] (Mean %) (WBC [4]; 30 min, WBC treated: molecule + cells): 77.28%
MW (mean WBC count; target: 300.000 WBC) (WBC [4]; 30 min, Well treated): 64909
WBC recovery rate [%] (Mean %) (WBC [4]; 30 min, well treated: molecule bound to surface): 21.64%
MW (mean WBC count; target: 300.000 WBC) (WBC [4]; 90 min, WBC treated): 249346.25
WBC recovery rate [%] (Mean %) (WBC [4]; 90 min, WBC treated: molecule + cells, listed as molecule useful in methods of invention): 83.12% and 83.1%
MW (mean WBC count; target: 300.000 WBC) (WBC [4]; 90 min, Well treated): 142865
WBC recovery rate [%] (Mean %) (WBC [4]; 90 min, well treated: molecule bound to surface, listed as molecule useful in methods of invention): 47.62% and 47.6%
MW (mean WBC count; target: 300.000 WBC) (WBC [4]; 120 min, WBC treated): 258692.75
WBC recovery rate [%] (Mean %) (WBC [4]; 120 min, WBC treated: molecule + cells): 86.23%
MW (mean WBC count; target: 300.000 WBC) (WBC [4]; 120 min, Well treated): 171062.75
WBC recovery rate [%] (Mean %) (WBC [4]; 120 min, well treated: molecule bound to surface): 57.02%

5′-CholesterylTEG-CholesterylTEG-PEG2000-Fluos-BiotinTEG-3′ [BMO 29.891180]
Remarks (staining) (WBCs [2]): strong

Biotin-PEG-Lysin-(C18)2 [HH1750]
WBC recovery rate after centrifugation: dependence on molecule concentration (WBC [3]; 300×g): The higher the concentration of the molecule, the higher the cell recovery rate after centrifugation

3′-(Myristic acid)2-PEG2000-dT-Biotin-TEG-5′ INVERS [compound 1255]
performance in WBC recovery rate after centrifugation (ranking) (WBC [3]; [9]): followed by compound 1255 and 1254
performance in WBC recovery rate after centrifugation (ranking) (WBC [3]; [10]): followed by molecule 1255 and 1254
